{"source": "patent EP2642290A1", "about": "“Glatiramer acetate human monocytic cell line-based potency assay” (Synthon BV, priority 2012, dated 2013)", "key": {"[1]": {"test_system": "THP-1 cells", "assay": "Human monocytic cell line-based potency assay: sIL-1Ra expression (ELISA) in THP-1 cells stimulated with PMA and LPS and exposed to glatiramer acetate", "conditions": "THP-1 cells treated with PMA alone or LPS alone instead of the combination"}, "[2]": {"test_system": "THP-1 cells", "assay": "Human monocytic cell line-based potency assay: sIL-1Ra expression (ELISA) in THP-1 cells stimulated with PMA and LPS and exposed to glatiramer acetate", "protocol": "Human monocytic cells are brought into a suitable medium, e.g. RPMI 1640 medium, and are stimulated with an effective amount of PMA and LPS, contacted with GA (0-250 μg/ml) and the effect on the expression of a monocyte anti-inflammatory cytokine, such as sIL-1Ra, is measured. […] Dose-response curves are generated by GA activation of monocytic cells and EC50 values are calculated using a non-linear four-parameter logistic model on semi-log transformed data, as described in the draft USP chapter <1034> on analysis of biological assays.\n• THP-1 cells are harvested and centrifugated at 200g for 5 minutes; • Resuspend the pellet in 10 ml fresh pre-warmed RPMI-1640+10% FBS+2mM L-Glutamine; • Take a sample for cell counting; • After cell count adjust the cell density to 5 x 10^5 cells/ml and add 100 μl of the THP-1 cell suspension to the wells of a 96-wellsplate (Corning Costar #3596); • Fill the boundary wells of the plate with CGM and place the plate temporally into a humidified incubator at 37 ± 1 °C and 5.0 ± 1% CO2.\n• In the dilution plate prepare the glatiramer acetate dilution series. The stock concentration is 20 mg/ml, which needs to be diluted in a 96-wellsplate to a working stock concentration of 1.2 mg/ml for the highest dilution on the dilution plate; • Pipette 75 μl RPMI-1640+10% FBS in column 2-8 (row B-G) of the dilution plate and pipette 235 μl RPMI-1640+10% FBS in column 9 (row B-G). Note: Other wells of the dilution 96-wellsplate remain unused; • Add 15 μl of reference glatiramer acetate and the test sample of glatiramer acetate (20 mg/ml) into column 9 (row B-G) of the dilution plate, giving a new concentration of 1.2 mg/ml; • Serially dilute 150 μl down, from column 9 to 2. Mix at each step by pipetting up and down 5 times; • Add 50 μl of the LPS/PMA working solution to the cell plate, with exception of the boundary wells.The final concentrations are 25 ng/ml LPS and 5 ng/ml PMA; • Add 50 μl of the glatiramer acetate dilutions to the plate containing the cells and the LPS and PMA working solution. The final dose-range of glatiramer acetate is between 12.5 and 250 μg/ml; • Incubate cells for 72 hours at 37°C in an incubator with 5% CO2, 93% humidity.\n• After 72 hours of incubation centrifuge the 96-well plate at 200g for 5 minutes. • Transfer 150 μl of the cell-free supernatant/well to a storage plate. • Supernatant of the samples will be used for analysis by IL-1Ra/Il-1F3 ELISA. • sIL-1Ra is determined using the sIL-1Ra ELISA kit from Quantikine, R&D, Minneapolis, MN (Cat # DRAOOB) following the manufacturer's instructions. The remainder of the supernatant is stored in a closed storage plate at -80°C.\nData on sIL-1Ra concentration are analyzed for relative potency as described in draft USP chapter <1034> section 3.4 on nonlinear models for quantitative responses. The software package GraphPad Prism (5.x) is used for fitting to a nonlinear model to the data: • sIL-1Ra data (in pg/ml) are plotted against the log transformed glatiramer acetate concentration (in log μg/ml); • A four-parameter logistic model is constructed to fit the dose response curves of the Reference (Ref) and the test batch (TA). […]"}}, "note": "“And” between values parts separate entries of the source, which are not always exact repeats. Identical values can stand only once."}
{"substance": "glatiramer acetate", "values": [{"measurement": "GA-induced cytokine expression", "setting": "[1]", "result": "neither PMA nor LPS treatment of THP-1 cells alone results in GA-induced cytokine expression"}, {"measurement": "Bottom", "setting": "[2]; bottom asymptote of constrained four-parameter logistic fit of sIL-1Ra response (sIL-1Ra data in pg/ml), 5 ng/ml PMA and 25 ng/ml LPS, 72 hours, four independent curves A-D of the same material, common value", "result": -4031}, {"measurement": "Relative potency (%)", "setting": "[2]; relative to curve A, arbitrarily set at 100%, all curves are 100% samples of the same material, curves A-D", "result": "100.0% and 128.5% and 118.5% and 107.7%"}, {"measurement": "EC50", "setting": "[2]; sIL-1Ra response, glatiramer acetate concentration in μg/ml, 5 ng/ml PMA and 25 ng/ml LPS, 72 hours, four independent curves A-D of the same material, in µg/mL", "result": "42.05 and 54.02 and 49.84 and 45.28"}, {"measurement": "Slope", "setting": "[2]; slope of constrained four-parameter logistic fit of sIL-1Ra response, 5 ng/ml PMA and 25 ng/ml LPS, curves A-D, common value", "result": 3.306}, {"measurement": "Top", "setting": "[2]; top asymptote of constrained four-parameter logistic fit of sIL-1Ra response (sIL-1Ra data in pg/ml), 5 ng/ml PMA and 25 ng/ml LPS, 72 hours, curves A-D, common value", "result": 53602}]}
